These results are taken from patent publication US9255272B2, “Use of inhibitors of leukotriene B4 receptor BLT2 for treating asthma” (Korea University Research & Business Foundation, priority 2007, dated 2016).

Type in all cases: in vivo, mouse
Series [1] relates to OVA-challenged mice. The series can be described thus: Histological analysis of lung airway inflammation in OVA-challenged mice. The method, then:
(§1) Female BALB/c mice and C57BL/6 mice (7 weeks old; 18-20 g) were obtained from Orientbion Inc. (Seoungnam, Korea). Sensitization and challenge were carried out as described previously with some modification (28). Briefly, female C57BL/6 mice (7 weeks old; 18-20 g) were immunized by intraperitoneal (i.p.) injection of 200 μg ovalbumin (OVA) emulsified in 2.5 mg of adjuvant aluminum hydroperoxide gel (alum) (Pierce, Rockford, Ill.). A second i.p. injection of 20 μg OVA adsorbed onto alum (2.5 mg) was administered 10 days later. After an additional 10 days, mice were exposed to an aerosol of 1% OVA in saline for 30 min daily on 3 consecutive days. On day 25, mice were finally challenged by provocation with 10% OVA aerosol. For inhibition experiments, sense or antisense BLT2 (1.6 mg/kg) was injected intravenously 24 h and then 1 h before the 10% OVA challenge. The mice were then killed on day 27 to assess asthmatic phenotypes. Antisense BLT2 oligonucleotide (5′-[…]-3′ (SEQ ID NO: 15)), sense BLT2 oligonucleotide (5′-[…]-3′ (SEQ ID NO: 16)).
Alternatively, BALB/c mice were sensitized on day 1 by i.p. injection of 20 μg OVA emulsified in 2.5 mg of alum (Pierce, Rockford, Ill.), followed by an identical booster injection administered on day 14. On days 21, 22 and 23 after initial sensitization, the mice were challenged for 30 min with an aerosol of 1% OVA using an ultrasonic nebulizer. LY255283 (2.5 mg/kg) or vehicle control (DMSO) was administered intravenously 1 h before 1% OVA challenge. Mice were killed on day 25, to assess asthmatic phenotypes. 2′,7′-dichorofluorescein diacetate (DCF-DA) was purchased from Molecular Probes (Eugene, Oreg.). BSA and DMSO were from Sigma-Aldrich (St. Louis, Mo.). Acetyl-methacholine chloride was purchased from Sigma-Aldrich (St. Louis, Mo.). All other chemicals were from standard sources and were of molecular biology grade or higher. All mice were maintained and bred under specific pathogen-free conditions in the Korea University mouse facility, and experiments were conducted within the parameters of an approved protocol by the Animal Research Committee.
Inflammatory cells in the BAL fluid were collected by centrifugation (1,000 g for 3 min) and washed once in PBS. Cells were counted using a hemocytometer, and viability was assessed by trypan blue exclusion. In addition, cytospin was carried out for each BAL sample, which was then stained with Diff-Quick (Merck, Dorset, U.K.), enabling differential cell counts to be made. For histological analysis, the lungs of the mice were dissected 48 h after OVA challenge and fixed with 10% formaldehyde in PBS, dehydrated in ethanol-xylene, and embedded in paraffin. Multiple paraffin-embedded […] sections were placed on 0.5% gelatin-coated slides, deparaffinized, and stained with hematoxylin-eosin (HE). Images were acquired using a BX51 microscope (Olympus, Tokyo, Japan) equipped with a DP71 digital camera (Olympus, Tokyo, Japan).
(§2) Inflammatory cells in the BAL fluid were collected by centrifugation (1,000 g for 3 min) and washed once in PBS. Cells were counted using a hemocytometer, and viability was assessed by trypan blue exclusion. […]
as §2

Series [2] relates to BLT2 mRNA. The series can be described thus: BLT2 mRNA level in lung of OVA-challenged mice (semiquantitative RT-PCR, real-time PCR). The method, then:
Female BALB/c mice and C57BL/6 mice (7 weeks old; 18-20 g) were obtained from Orientbion Inc. (Seoungnam, Korea). Sensitization and challenge were carried out as described previously with some modification (28). Briefly, female C57BL/6 mice (7 weeks old; 18-20 g) were immunized by intraperitoneal (i.p.) injection of 200 μg ovalbumin (OVA) emulsified in 2.5 mg of adjuvant aluminum hydroperoxide gel (alum) (Pierce, Rockford, Ill.). A second i.p. injection of 20 μg OVA adsorbed onto alum (2.5 mg) was administered 10 days later. After an additional 10 days, mice were exposed to an aerosol of 1% OVA in saline for 30 min daily on 3 consecutive days. On day 25, mice were finally challenged by provocation with 10% OVA aerosol. […]
(§3) Total RNA was extracted from lung samples using Easy-blue RNA extraction reagent (Intron, Korea). […] For the semiquantitative analysis of transcripts, the optimal PCR conditions were first determined by linear amplification of glyceraldehyde-3-phosphate dehydrogenase (GAPDH). […]
as §3
Background: Quantitative PCR measures a nucleic acid by following its amplification.

Series [3] concerns IκB-α. The series can be described thus: IκB-α level in lung tissue (Western blot). The conditions noted are these: lung tissue extracts. The method, then: as §1
Alternatively, BALB/c mice were sensitized on day 1 by i.p. injection of 20 μg OVA emulsified in 2.5 mg of alum (Pierce, Rockford, Ill.), followed by an identical booster injection administered on day 14. On days 21, 22 and 23 after initial sensitization, the mice were challenged for 30 min with an aerosol of 1% OVA using an ultrasonic nebulizer. […]
On the technique in general: In western blotting, separated proteins are transferred to a membrane and probed.

The mark [4] stands for this setting: C57BL/6 mice, antisense BLT2 1.6 mg/kg i.v. 24 hr and 1 hr before 10% OVA challenge.
Setting [5] is: BALB/c mice, LY255283 2.5 mg/kg i.v. 1 hr before 1% OVA challenge.

Consider “antisense BLT2: Antisense BLT2 oligonucleotide 5′-GCTCAGTAGTGTCTCATTCC-3′ (SEQ ID NO: 15) (listed as DNA, chemistry not fully specified)”, for which, in series [1] (setting [4]), the “airway obstruction and leukocyte infiltration (histology)” value is given as “diminished”; the “reduction of inflammation scores as compared to control” value is recorded as about 67%. In series [2] (C57BL/6 mice, 1.6 mg/kg i.v. 24 hr and 1 hr before 10% OVA challenge, 48 hr after challenge), the “BLT2 expression in the lung (mRNA)” value is given as “reduced”. The “reduction of IκB-α degradation following OVA challenge” value in series [3] (antisense BLT2 1.6 mg/kg) is reported as −50%.
As for “antisense Rac: phosphorothioate 17-mer to the 5′ end of murine Rac mRNA, 5′-CACTTGATGGCCTGCAT-3′ (SEQ ID NO: 22) (listed as DNA, chemistry not fully specified)”, the “airway obstruction and leukocyte infiltration (histology)” value in series [1] (Rac antisense i.v. 24 hr and 1 hr before 10% OVA challenge, 48 hr after challenge) was “diminished the effect”.
Turning to `CCc1cc(C(C)=O)c(O)cc1OCCCCCC(C)(C)c1nnn[nH]1` [LY255283, 1-[5-ethyl-2-hydroxy-4-[[6-methyl-6-(1H-tetrazol-5-yl)heptyl]oxy]phenyl]-ethanone, reference compound], in series [1] (setting [5]), the “airway obstruction and leukocyte infiltration (histology)” value is listed as “diminished the effect”; the “reduction of inflammation score as compared to control” value is given as about 66%. Further, the “level of BLT2 mRNA in the lung” value in series [2] (BALB/c mice, LY255283 2.5 mg/kg i.v. 1 hr before 1% OVA challenge, 48 h after challenge) is “significantly reduced”. Also, the “reduction of IκB-α degradation following OVA challenge” value in series [3] (LY255283 2.5 mg/kg 1 hr before 1% OVA challenge) is −50%.
